Each structure is given as a SMILES string.

T1 sequence (P25774 115-331): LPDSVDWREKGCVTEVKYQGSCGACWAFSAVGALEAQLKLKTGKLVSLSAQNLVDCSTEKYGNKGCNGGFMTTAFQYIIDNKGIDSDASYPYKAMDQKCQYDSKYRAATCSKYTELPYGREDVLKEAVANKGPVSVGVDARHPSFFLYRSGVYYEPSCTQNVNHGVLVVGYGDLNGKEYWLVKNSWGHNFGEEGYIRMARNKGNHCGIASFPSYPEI

The experiment addresses T1, Human CatS (Homo sapiens, UniProt P25774).
T1 construct: made in house; host or cells: Sf9 insect cells (baculovirus vector pFB+HT)
Kind of experiment: CatS inhibition of hydrolysis of fluorescent substrate Z-Val-Val-Arg-AFC. Type of experiment: biochemical. The note with it: apparent Ki, Morrison equation fit of initial rates; 10 μM Z-Val-Val-Arg-AFC, pH 5.0, 1.5 nM CatS; read-out: CatS Ki^app.
Consider `CC(=O)N1CCc2c(c(-c3ccc(Cl)c(-c4cccc(C(=O)N[C@@H](C)CN5CCc6cc(F)ccc65)c4)c3)nn2CCCN2CCCC2)C1` [Example 36, (S)-5′-[5-Acetyl-1-(3-pyrrolidin-1-yl-propyl)-4,5,6,7-tetrahydro-1H-pyrazolo[4,3-c]pyridin-3-yl]-2′-chloro-biphenyl-3-carboxylic acid [2-(5-fluoro-2,3-dihydro-indol-1-yl)-1-methyl-ethyl]-amide], for which the Ki came out at 736 nM. For `COc1ccc(NCCNC(=O)c2cccc(-c3cc(-c4nn(CCCN5CCC(O)C5)c5c4CNCC5)ccc3Cl)c2)cc1` (stereo not drawn) [Example 44, 2′-Chloro-5′-{1-[3-(3-hydroxy-pyrrolidin-1-yl)-propyl]-4,5,6,7-tetrahydro-1H-pyrazolo[4,3-c]pyridin-3-yl}-biphenyl-3-carboxylic acid [2-(4-methoxy-phenylamino)-ethyl]-amide] the value was 30.4 nM; for `CS(=O)(=O)N1CCc2c(c(-c3ccc(Cl)c(-c4cccc(C(=O)NCc5ncco5)c4)c3)nn2CCCN2CCC(O)C2)C1` (stereo not drawn) [Example 29, 2′-Chloro-5′-{1-[3-(3-hydroxy-pyrrolidin-1-yl)-propyl]-5-methanesulfonyl-4,5,6,7-tetrahydro-1H-pyrazolo[4,3-c]pyridin-3-yl}-biphenyl-3-carboxylic acid (oxazol-2-ylmethyl)-amide], 477 nM; for `COc1ccc(NCCNC(=O)c2cccc(-c3cc(-c4nn(CCCN5CCC(O)C5)c5c4CN(S(C)(=O)=O)CC5)ccc3Cl)c2)cc1` (stereo not drawn) [Example 28, 2′-Chloro-5′-{1-[3-(3-hydroxy-pyrrolidin-1-yl)-propyl]-5-methanesulfonyl-4,5,6,7-tetrahydro-1H-pyrazolo[4,3-c]pyridin-3-yl}-biphenyl-3-carboxylic acid [2-(4-methoxy-phenylamino)-ethyl]-amide], 19.5 nM. `Cc1ccc(NCCNC(=O)c2cccc(-c3cc(-c4nn(CCCN5CCCC5)c5c4CN(S(C)(=O)=O)CC5)ccc3Cl)c2)cc1` [Example 2, 2′-Chloro-5′-[5-methanesulfonyl-1-(3-pyrrolidin-1-yl-propyl)-4,5,6,7-tetrahydro-1H-pyrazolo[4,3-c]pyridin-3-yl]-biphenyl-3-carboxylic acid (2-p-tolylamino-ethyl)-amide]: the Ki is 345 nM. The value for `CS(=O)(=O)N1CCc2c(c(-c3ccc(Cl)c(-c4cccc(C(=O)NCc5ncco5)c4)c3)nn2CCCN2CCC(N3CCCC3=O)CC2)C1` [Example 32, 2′-Chloro-5′-(5-methanesulfonyl-1-{3-[4-(2-oxo-pyrrolidin-1-yl)-piperidin-1-yl]-propyl}-4,5,6,7-tetrahydro-1H-pyrazolo[4,3-c]pyridin-3-yl)-biphenyl-3-carboxylic acid (oxazol-2-ylmethyl)-amide] was 264 nM; that for `COc1ccc(NCCNC(=O)c2cccc(-c3cc(-c4nn(CCCN5CCCC5)c5c4CN(S(C)(=O)=O)CC5)ccc3Cl)c2)cc1` [Example 1, 2′-Chloro-5′-[5-methanesulfonyl-1-(3-pyrrolidin-1-yl-propyl)-4,5,6,7-tetrahydro-1H-pyrazolo[4,3-c]pyridin-3-yl]-biphenyl-3-carboxylic acid [2-(4-methoxy-phenylamino)-ethyl]-amide] was 85 nM; that for `CC(=O)N1CCc2c(c(-c3ccc(Cl)c(-c4cccc(C(=O)NCCN5CCc6cc(C)ccc65)c4)c3)nn2CCCN2CCCC2)C1` [Example 40, 5′-[5-Acetyl-1-(3-pyrrolidin-1-yl-propyl)-4,5,6,7-tetrahydro-1H-pyrazolo[4,3-c]pyridin-3-yl]-2′-chloro-biphenyl-3-carboxylic acid [2-(5-methyl-2,3-dihydro-indol-1-yl)-ethyl]-amide] was 228 nM.

For the molecule `CC(=O)N1CCc2c(c(-c3ccc(Cl)c(-c4cccc(C(=O)NCc5nc6ccccc6s5)c4)c3)nn2CCCN2CCCC2)C1` [Example 38, 5′-[5-Acetyl-1-(3-pyrrolidin-1-yl-propyl)-4,5,6,7-tetrahydro-1H-pyrazolo[4,3-c]pyridin-3-yl]-2′-chloro-biphenyl-3-carboxylic acid (benzothiazol-2-ylmethyl)-amide], the Ki amounted to 231 nM.

These data come from patent publication US20080207683A1, “BIARYL-S[…]-PYRAZOLO-PYRIDINE MODULATORS OF CATHEPSIN S” (priority 2007, published 2008).
